Test results from the supplement of paper PMC10307832.

Columns and labels:
Assay in all cases: relative viability (nuclei count vs DMSO), 5 days (fraction); higher = more cells survive
[1] = compound: CC1CC(=O)N(C2=CN=C(N=C2N1C3CCCC3)NC4=C(C=C(C=C4)C(=O)NC5CCN(CC5)C)OC)C [NPK76-II-72-1]
Procedure, shortened: (§1)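 MetaXpress counted nuclei in 4× images of lung cancer cell lines that had been fixed, permeabilised and Hoechst-stained in one step. Before that, cells in 1536-well plates were kept overnight at 37 °C, pinned with five √10-spaced library-drug doses on vehicle-anchored plates, and cultured 5 days without medium change. Viability takes treated-well nuclei over vehicle-well nuclei and uses the median across plates. Plates were accepted only at control CV below 25% and at least one doubling.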

[2] = compound: CC[C@@H]1C(=O)N(C)c2cnc(Nc3ccc(C(=O)NC4CCN(C)CC4)cc3OC)nc2N1C1CCCC1 [BI-2536]
Procedure, shortened: as §1

[3] = compound: CC1CC(=O)N(C2=CN=C(N=C2N1C3CCCC3)NC4=C(C=C(C=C4)C(=O)NC5CCN(CC5)C)OC)C [NPK76-II-72-1] + Nc1ncn([C@H]2C[C@H](O)[C@@H](CO)O2)c(=O)n1 [Decitabine] (partner 2 µM)
Procedure, shortened: (§2)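 Relative viability equals treated-well nuclei counts divided by vehicle-well nuclei counts. Counts came from 4× images of lung cancer cell lines grown in 1536-well plates for 5 days after pin-tool dosing on the day after seeding. Dosing used one drug alone or a fixed anchor-drug dose plus five library-drug doses (not always all listed) in √10 steps, and values are medians of duplicate plates.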

[4] = compound: CC[C@@H]1C(=O)N(C)c2cnc(Nc3ccc(C(=O)NC4CCN(C)CC4)cc3OC)nc2N1C1CCCC1 [BI-2536] + C[C@]1(O)C[C@@H](c2nc(-c3ccc4ccc(-c5ccccc5)nc4c3)c3c(N)nccn32)C1 [Linsitinib] (partner 1 µM)
Procedure, shortened: as §2

Cell Line: UMC-11
- relative viability ([1]; 0.01 µM): 0.93
- relative viability ([1]; 0.03162 µM): 0.95
- relative viability ([1]; 0.1 µM): 1.01
- relative viability ([1]; 0.3162 µM): 0.909
- relative viability ([1]; 1 µM): 0.931
- relative viability ([2]; 0.01 µM): 0.923
- relative viability ([2]; 0.03162 µM): 0.624
- relative viability ([2]; 0.1 µM): 0.175
- relative viability ([2]; 0.3162 µM): 0.205
- relative viability ([2]; 1 µM): 0.2
- relative viability ([3]; first compound 0.01 µM): 0.617
- relative viability ([3]; first compound 0.03162 µM): 0.57
- relative viability ([3]; first compound 0.1 µM): 0.683
- relative viability ([3]; first compound 0.3162 µM): 0.505
- relative viability ([3]; first compound 1 µM): 0.736
- relative viability ([4]; first compound 0.01 µM): 1.02
- relative viability ([4]; first compound 0.03162 µM): 0.967
- relative viability ([4]; first compound 0.1 µM): 0.841
- relative viability ([4]; first compound 0.3162 µM): 0.207
- relative viability ([4]; first compound 1 µM): 0.172
